From article PMC12527922, “Cocaine chemogenetics blunts drug-seeking by synthetic physiology” (Nature, 2025)
Where two headings read alike, the source gives them in different places.

Columns and labels:
Test in all cases: cell-based
Format in all cases: cell-based, human α7 nAChR LBD, mouse 5HT3 IPD
[1] = target: α7–5HT3 mutant chimeric channels (Homo sapiens, UniProt P36544, Q139P)
[2] = target: α7–5HT3 mutant chimeric channels (Homo sapiens, UniProt P36544, S172V)
[3] = target: α7–5HT3 mutant chimeric channels (Homo sapiens, UniProt P36544, L141A)
[4] = target: α7–5HT3 mutant chimeric channels (Homo sapiens, UniProt P36544, S170G)
[5] = target: α7–5HT3 mutant chimeric channels (Homo sapiens, UniProt P36544, S170H)
[6] = target: α7–5HT3 mutant chimeric channels (Homo sapiens, UniProt P36544, S170W)
[7] = target: α7–5HT3 mutant chimeric channels (Homo sapiens, UniProt P36544, S170N)
[8] = target: α7–5HT3 mutant chimeric channels (Homo sapiens, UniProt P36544, Q139M)
[9] = target: α7–5HT3 mutant chimeric channels (Homo sapiens, UniProt P36544, W77Y)
Chain of α7–5HT3 mutant chimeric channels (Homo sapiens, UniProt P36544, W77Y) (P36544 23-224 W77Y): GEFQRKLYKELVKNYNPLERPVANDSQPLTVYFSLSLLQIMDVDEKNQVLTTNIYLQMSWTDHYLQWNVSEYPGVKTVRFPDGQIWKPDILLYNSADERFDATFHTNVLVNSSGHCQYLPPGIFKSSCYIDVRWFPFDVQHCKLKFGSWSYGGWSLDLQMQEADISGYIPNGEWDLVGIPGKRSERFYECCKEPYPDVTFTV
Chain of α7–5HT3 mutant chimeric channels (Homo sapiens, UniProt P36544, W77Y) (P23979 242-489, further chain): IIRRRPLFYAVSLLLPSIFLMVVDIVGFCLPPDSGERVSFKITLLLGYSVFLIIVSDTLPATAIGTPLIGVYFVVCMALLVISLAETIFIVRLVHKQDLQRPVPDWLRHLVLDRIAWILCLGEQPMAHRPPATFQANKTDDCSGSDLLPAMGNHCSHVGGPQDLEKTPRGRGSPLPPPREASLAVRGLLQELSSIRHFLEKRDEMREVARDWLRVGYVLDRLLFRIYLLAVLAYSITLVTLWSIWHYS

[10] = target: α7–5HT3 mutant chimeric channels (Homo sapiens, UniProt P36544, S172K)
[11] = target: α7–5HT3 mutant chimeric channels (Homo sapiens, UniProt P36544, Q139L)
Chain of α7–5HT3 mutant chimeric channels (Homo sapiens, UniProt P36544, Q139L) (P36544 23-224 Q139L): as the sequence (P36544 23-224 W77Y) above, with Y55W, Q117L counted along it
Chain of α7–5HT3 mutant chimeric channels (Homo sapiens, UniProt P36544, Q139L) (P23979 242-489, further chain): as the sequence (P23979 242-489, further chain) above

[12] = target: α7–5HT3 mutant chimeric channels (Homo sapiens, UniProt P36544, Q139R)
Chain of α7–5HT3 mutant chimeric channels (Homo sapiens, UniProt P36544, Q139R) (P23979 242-489): as the sequence (P23979 242-489, further chain) above
Chain of α7–5HT3 mutant chimeric channels (Homo sapiens, UniProt P36544, Q139R) (P36544 23-224 Q139R): as the sequence (P36544 23-224 W77Y) above, with Y55W, Q117R counted along it

[13] = target: α7–5HT3 mutant chimeric channels (Homo sapiens, UniProt P36544, Q139D)
Chain of α7–5HT3 mutant chimeric channels (Homo sapiens, UniProt P36544, Q139D) (P23979 242-489): as the sequence (P23979 242-489, further chain) above
Chain of α7–5HT3 mutant chimeric channels (Homo sapiens, UniProt P36544, Q139D) (P36544 23-224 Q139D): as the sequence (P36544 23-224 W77Y) above, with Y55W, Q117D counted along it

[14] = target: α7–5HT3 mutant chimeric channels (Homo sapiens, UniProt P36544, S170T)
[15] = target: α7–5HT3 mutant chimeric channels (Homo sapiens, UniProt P36544, S170E)
[16] = target: α7–5HT3 mutant chimeric channels (Homo sapiens, UniProt P36544, S170Y)
[17] = target: α7–5HT3 mutant chimeric channels (Homo sapiens, UniProt P36544, L141G)
[18] = target: α7–5HT3 mutant chimeric channels (Homo sapiens, UniProt P36544, Q79G)
Chain of α7–5HT3 mutant chimeric channels (Homo sapiens, UniProt P36544, Q79G) (P36544 23-224 Q79G): as the sequence (P36544 23-224 W77Y) above, with Y55W, Q57G counted along it
Chain of α7–5HT3 mutant chimeric channels (Homo sapiens, UniProt P36544, Q79G) (P23979 242-489, further chain): as the sequence (P23979 242-489, further chain) above

[19] = target: α7–5HT3 mutant chimeric channels (Homo sapiens, UniProt P36544, S170L)
[20] = target: α7–5HT3 mutant chimeric channels (Homo sapiens, UniProt P36544, S172L)
[21] = target: α7–5HT3 mutant chimeric channels (Homo sapiens, UniProt P36544, L141F)
Chain of α7–5HT3 mutant chimeric channels (Homo sapiens, UniProt P36544, L141F) (P36544 23-224 L141F): as the sequence (P36544 23-224 W77Y) above, with Y55W, L119F counted along it
Chain of α7–5HT3 mutant chimeric channels (Homo sapiens, UniProt P36544, L141F) (P23979 242-489, further chain): as the sequence (P23979 242-489, further chain) above

[22] = target: α7–5HT3 mutant chimeric channels (Homo sapiens, UniProt P36544, Q139F)
Chain of α7–5HT3 mutant chimeric channels (Homo sapiens, UniProt P36544, Q139F) (P36544 23-224 Q139F): as the sequence (P36544 23-224 W77Y) above, with Y55W, Q117F counted along it
Chain of α7–5HT3 mutant chimeric channels (Homo sapiens, UniProt P36544, Q139F) (P23979 242-489, further chain): as the sequence (P23979 242-489, further chain) above

[23] = target: α7–5HT3 mutant chimeric channels (Homo sapiens, UniProt P36544, Q139Y)
Chain of α7–5HT3 mutant chimeric channels (Homo sapiens, UniProt P36544, Q139Y) (P36544 23-224 Q139Y): as the sequence (P36544 23-224 W77Y) above, with Y55W, Q117Y counted along it
Chain of α7–5HT3 mutant chimeric channels (Homo sapiens, UniProt P36544, Q139Y) (P23979 242-489, further chain): as the sequence (P23979 242-489, further chain) above

[24] = target: α7–5HT3 mutant chimeric channels (Homo sapiens, UniProt P36544, Q139A)
[25] = target: α7–5HT3 mutant chimeric channels (Homo sapiens, UniProt P36544, S170F)
[26] = target: α7–5HT3 mutant chimeric channels (Homo sapiens, UniProt P36544, L141P)
Chain of α7–5HT3 mutant chimeric channels (Homo sapiens, UniProt P36544, L141P) (P36544 23-224 L141P): as the sequence (P36544 23-224 W77Y) above, with Y55W, L119P counted along it
Chain of α7–5HT3 mutant chimeric channels (Homo sapiens, UniProt P36544, L141P) (P23979 242-489, further chain): as the sequence (P23979 242-489, further chain) above

Measured: EC50

Chain of α7–5HT3 mutant chimeric channels (Homo sapiens, UniProt P36544, Q139P) (P23979 242-489): as the sequence (P23979 242-489, further chain) above
Chain of α7–5HT3 mutant chimeric channels (Homo sapiens, UniProt P36544, Q139P) (P36544 23-224 Q139P): as the sequence (P36544 23-224 W77Y) above, with Y55W, Q117P counted along it

COC(=O)[C@H]1[C@@H](OC(=O)c2ccccc2)C[C@@H]2CC[C@H]1N2C [cocaine]
3.5 µM: [3]
2.35 µM: [17]
> 30 µM: [1] | [1]; read-out: EC50 at a7 5HT3 Q139P, Avg, sheet 1d, Avg | [2] | [4] | [5] | [6] | [7] | [8] | [8]; read-out: EC50 at a7 5HT3 Q139M, Avg, sheet 1d, Avg | [9] | [9]; read-out: EC50 at a7 5HT3 W77Y, Avg, sheet 1d, Avg | [10] | [11] | [11]; read-out: EC50 at a7 5HT3 Q139L, sheet 1d, single determinations | [12] | [12]; read-out: EC50 at a7 5HT3 Q139R, Avg, sheet 1d, Avg | [13] | [13]; read-out: EC50 at a7 5HT3 Q139D, Avg, sheet 1d, Avg | [14] | [15] | [16] | [18] | [18]; read-out: EC50 at a7 5HT3 Q79G, sheet 1d, single determinations | [20] | [21] | [21]; read-out: EC50 at α75HT3 L141F, sheet 1d, single determinations | [22] | [22]; read-out: EC50 at a7 5HT3 Q139F, Avg, sheet 1d, Avg | [23] | [23]; read-out: EC50 at a7 5HT3 Q139Y, Avg, sheet 1d, Avg | [24] | [24]; read-out: EC50 at a7 5HT3 Q139A, Avg, sheet 1d, Avg | [25] | [26] | [26]; read-out: EC50 at α75HT3 L141P, Avg, sheet 1d, Avg
6 µM: [19]
